This is an account of results in patent US20230303569A1, “HETEROCYCLIC COMPOUNDS AS THERAPEUTIC AGENTS” (Arisan Therapeutics Inc., priority 2021, published 2023).

Read-outs that look alike come from different tables or passages of the source.

Holding throughout (format): cell-based
The target of data set [1] is T1, human Nav1.5 (pulse 1, tonic inhibition) (Homo sapiens, UniProt Q14524).
T1 construct: host or cells: HEK293
In words: Two pulse assay protocol, Nav1.5. The settings on record: HEK293 cells stably expressing human Nav1.5, pH 7.3, peak current, pulse 1 (tonic), read-out: percent inhibition hNav1.5, Pulse 1 (5 uM). The protocol:
(§1) In vitro Na+ Current Inhibition Assays were performed by Eurofins Discovery (St Charles, MO). All compound functional activity determinations were determined through electrophysiological analyses of Na+ currents in HEK293 cells expressing a stably transfected Na+ channel (human Nav1.1, 1.2, 1.3, 1.5, 1.6, 1.7, or 1.8). After harvesting with Accutase cells are maintained in serum free medium at room temperature prior to electrophysiological recording utilizing the QPatch HT automated whole-cell patch-clamp platform (Sophion Bioscience, Woburn MA). Stock solution aliquots of the test compound are prepared in DMSO at 300× the final assay concentrations, and stored at −20° C. until the day of assay. On the day of the assay, an aliquot of the stock solution is thawed and diluted into external solution (137 mM NaCl, 4 mM KCl, 1 mM MgCl2, 1.8 mM CaCl2, 10 mM HEPES, 10 mM Glucose (pH 7.3, titrated with 10M NaOH) to make final test concentrations. A final concentration of 0.33% DMSO is maintained for each concentration of the assay compounds. Internal solution for recordings of Na+ consist consists of 100 mM CsF, 45 mM CsCl, 5 mM NaCl, 10 mM HEPES, 5 mM EGTA (pH 7.3, titrated with 1M CsOH).
(§2) Two pulse assay protocol for human Nav1.1, 1.2, 1.3, 1.5, 1.6, 1.7, and 1.8 channels. Mammalian cultured cells expressing the indicated human Nav1.1, 1.2, 1.3, 1.5, 1.6, 1.7 or 1.8 channels were assayed using the The QPatch HT (Sophion Bioscience, Woburn MA) automated system with an intracellular solution (mM) of 100 CsF, 45 CsCl, 5 NaCl, 10 HEPES, 5 EGTA (pH 7.3, titrated with 1M CsOH) and extracellular solution (mM) of 137 NaCl, 4 KCl, 1 MgCl2, 1.8 CaCl2, 10 HEPES, 10 Glucose (pH 7.3, titrated with 10M NaOH). Onset and steady state block of the sodium channel was measured using a pulse pattern, repeated every 20 seconds (s) from a holding potential of −120 mV for 100 ms, and then pulsed to 0 mV for 500 ms to inactivate the Na channels and facilitate inactivated state-dependent binding of the test compounds. The cell membranes were then stepped back to −120 mV for 10 ms to recover from inactivation into resting or closed state (channels with test compound bound to them will not recover from inactivation and will not open) before stepping to 0 mV for 50 ms (pulse 2) to measure Na channels that are available to open. Peak current was measured during the step to 0 mV at pulse 1 and 2 to measure tonic and state-dependent inhibition. Compound activities were assessed by dividing post current amplitude (at the end of each five (5) minute compound application) by the vehicle control amplitude and the mean calculated for each compound concentration. Tetracaine was used as a positive control and was tested concurrently with the test compounds. Current amplitudes in excess of 200 pA at the control stage were analyzed. The amplitude of the current was calculated by measuring the difference between the peak inward current on stepping to 0 mV (i.e. peak of the current) and remaining current at the end of the step. The current was assessed in vehicle control conditions and then at the end of each five (5) minute compound application.

Data set [2] deals with T2, human Nav1.5 (pulse 2, state-dependent inhibition) (Homo sapiens, UniProt Q14524).
T2 construct: host or cells: HEK293
In words: Two pulse assay protocol, Nav1.5. The settings on record: HEK293 cells stably expressing human Nav1.5, pH 7.3, peak current, pulse 2 (state-dependent), read-out: percent inhibition hNav1.5, Pulse 2 (5 uM). The protocol: as §1, §2

The target in another data set is T3, human Nav1.6 (Homo sapiens, UniProt Q9UQD0).
T3 construct: host or cells: HEK293
In words: Two pulse assay protocol, Nav1.6. Conditions: peak current. The protocol:
as §1, §2

The target in the next data set is T4, human Nav1.7 (Homo sapiens, UniProt Q15858).
T4 construct: host or cells: HEK293
In words: Two pulse assay protocol, Nav1.7. The settings on record: peak current. The protocol: as §1, §2

Data set [3] has as its target T5, human Nav1.5 (late current) (Homo sapiens, UniProt Q14524).
T5 construct: host or cells: HEK293
In words: Nav1.5 Late Current Assay (QPatch HT whole-cell patch clamp, 30 nM ATX-II). Conditions: HEK293 cells stably expressing human Nav1.5, pH 7.3, late current with 30 nM ATX-II, read-out: percent inhibition hNav1.5 Late (5 uM). On the procedure:
as §1
Onset and steady state induction of late Nav1.5 current was measured using a pulse pattern, repeated every 5 sec, consisting of a hyperpolarizing pulse to −120 mV for a 200 ms duration, depolarization to −15 mV amplitude for a 40 ms duration, followed by step to 40 mV for 200 ms and finally a 100 ms ramp (1.2 V/s) to a holding potential of −80 mV. Each concentration of compound was applied for 5 minutes. The assay was performed at room temperature. After establishing vehicle control condition, all further addition of external solutions contain 30 nM ATX-II to activate late currents. Each concentration of compound was also co-applied with 30 nM ATXII to estimate the Nav1.5 late current inhibition. […]. ATXII was used as the agonist positive control and was tested concurrently with the test compound. Ranolazine was used as the positive control and was tested concurrently with the test compound.
Nav1.5 late current was measured as the total charge flowing through the Nav1.5 channels (area under the curve) 5 ms after the Nav1.5 peak current till the end of the test pulse and as charge at their maxima during the ramp. Individual cell results were normalized to their respective vehicle control and the results were averaged. The sodium current was assessed in 30 nM ATXII as vehicle control conditions and then at the end of each five (5) minute compound application in the presence of 30 nM ATXII. Individual cell result was normalized to 30 nM ATXII vehicle control amplitude and the mean±SEM calculated for each compound concentration.
A general note: The patch-clamp technique gives a direct electrical read-out from membranes.

A further data set concerns the target T6, human Nav1.8 (Homo sapiens, UniProt Q9Y5Y9).
T6 construct: host or cells: HEK293
In words: Two pulse assay protocol, Nav1.8. Conditions: peak current. The protocol: as §1, §2

The mark [4] stands for this setting: pulse 1 (tonic), read-out: percent inhibition hNav1.6, Pulse 1 (5 uM).
[5] abbreviates: pulse 2 (state-dependent), read-out: percent inhibition hNav1.6, Pulse 2 (5 uM).
[6] abbreviates: pulse 1 (tonic), read-out: percent inhibition hNav1.7, Pulse 1 (5 uM).
Setting [7] is: pulse 2 (state-dependent), read-out: percent inhibition hNav1.7, Pulse 2 (5 uM).
Setting [8] is: pulse 1 (tonic), read-out: percent inhibition hNav1.8, Pulse 1 (5 uM).
[9] abbreviates: pulse 2 (state-dependent), read-out: percent inhibition hNav1.8, Pulse 2 (5 uM).

Usually inhibition stands for how much of the control response was suppressed.

T4 sequence (Q15858 whole entry): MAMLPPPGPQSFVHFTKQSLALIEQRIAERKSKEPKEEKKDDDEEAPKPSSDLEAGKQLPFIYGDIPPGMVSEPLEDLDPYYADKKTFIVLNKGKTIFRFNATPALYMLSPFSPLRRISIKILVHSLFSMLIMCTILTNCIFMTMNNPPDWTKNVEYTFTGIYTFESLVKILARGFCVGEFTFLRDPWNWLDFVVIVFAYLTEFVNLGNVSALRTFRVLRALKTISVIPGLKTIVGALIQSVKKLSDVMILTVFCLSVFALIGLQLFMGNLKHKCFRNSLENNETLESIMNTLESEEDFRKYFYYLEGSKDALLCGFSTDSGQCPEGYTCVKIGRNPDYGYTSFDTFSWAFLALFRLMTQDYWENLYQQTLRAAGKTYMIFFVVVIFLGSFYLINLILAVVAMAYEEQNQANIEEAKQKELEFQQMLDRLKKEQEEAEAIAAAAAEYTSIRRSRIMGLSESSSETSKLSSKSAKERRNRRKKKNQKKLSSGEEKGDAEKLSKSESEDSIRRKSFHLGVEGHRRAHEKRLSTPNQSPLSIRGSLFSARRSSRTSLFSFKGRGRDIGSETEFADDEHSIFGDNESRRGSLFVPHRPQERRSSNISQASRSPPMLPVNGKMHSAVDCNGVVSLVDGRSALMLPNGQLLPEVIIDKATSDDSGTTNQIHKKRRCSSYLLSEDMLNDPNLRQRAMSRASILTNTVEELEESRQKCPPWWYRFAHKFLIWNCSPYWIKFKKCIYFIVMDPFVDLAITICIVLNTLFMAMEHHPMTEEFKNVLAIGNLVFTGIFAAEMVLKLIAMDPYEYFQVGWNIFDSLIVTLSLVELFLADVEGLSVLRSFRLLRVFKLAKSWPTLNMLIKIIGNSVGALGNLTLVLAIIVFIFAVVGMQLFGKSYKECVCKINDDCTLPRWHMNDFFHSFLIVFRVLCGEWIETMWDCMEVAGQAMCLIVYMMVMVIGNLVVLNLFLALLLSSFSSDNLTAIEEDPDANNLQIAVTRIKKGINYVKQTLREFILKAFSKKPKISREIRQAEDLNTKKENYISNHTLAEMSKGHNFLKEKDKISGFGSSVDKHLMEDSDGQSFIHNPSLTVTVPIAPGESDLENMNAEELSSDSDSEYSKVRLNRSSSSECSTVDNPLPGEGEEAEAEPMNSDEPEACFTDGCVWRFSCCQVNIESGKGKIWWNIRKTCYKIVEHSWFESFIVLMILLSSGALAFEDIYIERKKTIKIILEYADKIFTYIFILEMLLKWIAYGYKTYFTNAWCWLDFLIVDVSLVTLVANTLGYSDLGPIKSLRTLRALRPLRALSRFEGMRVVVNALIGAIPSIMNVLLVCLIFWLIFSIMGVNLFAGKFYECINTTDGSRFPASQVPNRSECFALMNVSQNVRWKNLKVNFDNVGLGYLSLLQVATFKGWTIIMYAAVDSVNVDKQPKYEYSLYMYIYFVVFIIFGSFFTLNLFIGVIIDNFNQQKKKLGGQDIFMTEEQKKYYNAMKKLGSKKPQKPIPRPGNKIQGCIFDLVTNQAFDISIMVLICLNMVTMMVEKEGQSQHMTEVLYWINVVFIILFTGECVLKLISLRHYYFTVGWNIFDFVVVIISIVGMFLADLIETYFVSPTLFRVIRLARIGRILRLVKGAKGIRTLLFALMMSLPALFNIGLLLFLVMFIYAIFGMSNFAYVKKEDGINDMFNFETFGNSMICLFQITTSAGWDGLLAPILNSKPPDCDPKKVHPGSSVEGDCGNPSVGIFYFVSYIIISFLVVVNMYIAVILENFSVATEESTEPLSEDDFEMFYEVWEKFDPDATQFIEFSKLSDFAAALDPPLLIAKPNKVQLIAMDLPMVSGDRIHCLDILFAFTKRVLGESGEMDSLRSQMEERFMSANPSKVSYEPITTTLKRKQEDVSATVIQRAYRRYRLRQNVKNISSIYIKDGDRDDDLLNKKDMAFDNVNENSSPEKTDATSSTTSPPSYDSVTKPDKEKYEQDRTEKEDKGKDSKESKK
T6 sequence (Q9Y5Y9 whole entry): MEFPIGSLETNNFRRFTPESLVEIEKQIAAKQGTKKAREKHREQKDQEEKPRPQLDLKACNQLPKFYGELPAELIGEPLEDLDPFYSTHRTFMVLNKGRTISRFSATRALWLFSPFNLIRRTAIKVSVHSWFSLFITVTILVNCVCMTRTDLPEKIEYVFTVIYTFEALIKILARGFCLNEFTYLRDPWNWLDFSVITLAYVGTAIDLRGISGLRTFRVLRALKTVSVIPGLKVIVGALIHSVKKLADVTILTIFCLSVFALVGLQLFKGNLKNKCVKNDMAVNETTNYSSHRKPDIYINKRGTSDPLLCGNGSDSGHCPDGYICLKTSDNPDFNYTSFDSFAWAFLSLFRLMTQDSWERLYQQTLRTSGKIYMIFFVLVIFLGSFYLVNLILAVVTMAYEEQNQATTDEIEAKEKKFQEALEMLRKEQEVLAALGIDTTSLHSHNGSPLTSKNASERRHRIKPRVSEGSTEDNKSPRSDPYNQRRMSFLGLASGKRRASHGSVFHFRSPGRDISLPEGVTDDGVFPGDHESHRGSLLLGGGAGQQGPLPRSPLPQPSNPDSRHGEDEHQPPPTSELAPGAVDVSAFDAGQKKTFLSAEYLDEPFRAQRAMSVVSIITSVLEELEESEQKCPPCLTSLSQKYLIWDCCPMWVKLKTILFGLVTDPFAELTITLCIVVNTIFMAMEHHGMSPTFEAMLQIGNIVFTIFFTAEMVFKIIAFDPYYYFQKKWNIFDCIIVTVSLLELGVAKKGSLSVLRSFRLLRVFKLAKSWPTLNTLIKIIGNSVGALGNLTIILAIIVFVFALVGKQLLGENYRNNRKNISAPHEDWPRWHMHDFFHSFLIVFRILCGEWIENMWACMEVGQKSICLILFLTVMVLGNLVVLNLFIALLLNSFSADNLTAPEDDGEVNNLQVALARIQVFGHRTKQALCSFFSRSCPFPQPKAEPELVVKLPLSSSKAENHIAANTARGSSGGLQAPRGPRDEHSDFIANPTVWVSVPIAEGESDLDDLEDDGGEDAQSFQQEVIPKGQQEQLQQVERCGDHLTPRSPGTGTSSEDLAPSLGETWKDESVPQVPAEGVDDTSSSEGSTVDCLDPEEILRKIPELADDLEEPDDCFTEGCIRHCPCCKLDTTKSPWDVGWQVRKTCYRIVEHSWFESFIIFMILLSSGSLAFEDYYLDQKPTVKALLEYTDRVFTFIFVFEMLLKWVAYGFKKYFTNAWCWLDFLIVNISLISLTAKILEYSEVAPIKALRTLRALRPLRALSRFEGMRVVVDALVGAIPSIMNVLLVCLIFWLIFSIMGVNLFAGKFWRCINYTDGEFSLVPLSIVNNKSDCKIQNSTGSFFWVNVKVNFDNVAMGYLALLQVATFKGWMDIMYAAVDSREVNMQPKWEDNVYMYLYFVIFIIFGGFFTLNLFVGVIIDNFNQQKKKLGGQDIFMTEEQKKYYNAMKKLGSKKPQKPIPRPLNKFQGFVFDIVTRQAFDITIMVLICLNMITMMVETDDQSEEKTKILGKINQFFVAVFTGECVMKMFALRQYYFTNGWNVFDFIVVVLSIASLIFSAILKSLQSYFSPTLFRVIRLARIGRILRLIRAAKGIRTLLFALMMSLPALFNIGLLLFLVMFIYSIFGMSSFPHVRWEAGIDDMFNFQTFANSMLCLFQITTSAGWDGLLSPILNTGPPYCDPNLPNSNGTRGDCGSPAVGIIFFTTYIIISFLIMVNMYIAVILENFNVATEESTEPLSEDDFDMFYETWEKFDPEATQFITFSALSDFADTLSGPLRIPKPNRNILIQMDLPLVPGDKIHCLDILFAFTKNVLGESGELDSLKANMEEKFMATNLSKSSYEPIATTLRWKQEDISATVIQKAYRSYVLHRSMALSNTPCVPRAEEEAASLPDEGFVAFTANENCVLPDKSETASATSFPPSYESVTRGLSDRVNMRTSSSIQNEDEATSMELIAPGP

As to `CC(C)Oc1ccc(-c2ccc3ncc(-c4ccc(C(C)(C)C)nc4)n3c2)cc1` [Example C89, 3-(6-(tert-butyl)pyridin-3-yl)-6-(4-isopropoxyphenyl)imidazo[1,2-a]pyridine], the inhibition at 5 min, 5 µM is < 50% in data set [1] and 50 to 90% in data set [2]. The inhibition at 5 µM on human Nav1.6 (setting [4]) was < 50%; on human Nav1.6 (setting [5]) it was > 90%; at human Nav1.7 (setting [6]), < 50%; on human Nav1.7 (setting [7]), > 90%.
Turning to `Cc1cc2ncc(-c3ccc(C(C)(C)O)cc3)n2cc1-c1ccc(OC(C)C)cc1` [Example C56, 2-(4-(6-(4-isopropoxyphenyl)-7-methylimidazo[1,2-a]pyridin-3-yl)phenyl)propan-2-ol], the inhibition at 5 min, 5 uM in data set [3] is < 50%.
The same measure, in the same setting: for `CC(C)Oc1ccc(-c2ccc3ncc(-c4cccc(OC(C)C)c4)n3c2)cc1` [Example C35, 3-[3-(propan-2-yloxy)phenyl]-6-[4-(propan-2-yloxy)phenyl]imidazo[1,2-a]pyridine] the value was > 90%.
As to `CC(C)Oc1ccc(-c2cnc3ccc(-c4ccc(OC(C)C)c(F)c4)cn23)cc1` [Example C24, 6-[3-fluoro-4-(propan-2-yloxy)phenyl]-3-[4-(propan-2-yloxy)phenyl]imidazo[1,2-a]pyridine], the inhibition at 5 min, 5 µM was < 50% in data set [1] and > 90% in data set [2]. The inhibition at 5 µM is < 50% on human Nav1.6 (setting [4]), > 90% on human Nav1.6 (setting [5]), < 50% at human Nav1.7 (setting [6]) and 50 to 90% on human Nav1.7 (setting [7]).
As to `Cc1cc(-c2cnc3ccc(-c4ccc(OC(C)C)cc4)cn23)cnc1OC(C)C` [Example C71, 3-(6-isopropoxy-5-methylpyridin-3-yl)-6-(4-isopropoxyphenyl)imidazo[1,2-a]pyridine], the inhibition at 5 min, 5 µM in data set [1] is < 50%; in data set [2] it was > 90%. Besides, the inhibition at 5 µM at human Nav1.6 (setting [4]) was < 50%; at human Nav1.6 (setting [5]) it was > 90%; on human Nav1.7 (setting [6]) it was < 50%; at human Nav1.7 (setting [7]), > 90%.
In the case of `COc1cc2ncc(-c3ccc(OC(C)C)cc3)n2cc1-c1ccc(OC(C)C)cc1` [Example C49, 7-methoxy-3,6-bis[4-(propan-2-yloxy)phenyl]imidazo[1,2-a]pyridine], in data set [3], the inhibition at 5 min, 5 uM was < 50%.
For `CC(C)Oc1ccc(-c2cnc3ccc(C(F)(F)F)cn23)cc1` [Example C61, 3-(4-isopropoxyphenyl)-6-(trifluoromethyl)imidazo[1,2-a]pyridine], the inhibition at 5 µM at human Nav1.6 (setting [4]), on human Nav1.6 (setting [5]), at human Nav1.8 (setting [8]) and at human Nav1.8 (setting [9]) was < 50% in each case.
Turning to `CC(C)Oc1ccc(-c2cn3c(-c4ccc(OC(C)C)cc4)cnc3cc2C#N)cc1` [Example C52, 3,6-bis(4-isopropoxyphenyl)imidazo[1,2-a]pyridine-7-carbonitrile], in data set [3], the inhibition at 5 min, 5 uM is < 50%.
The same measure, in the same setting: to `CC(C)Oc1ccc(-c2cnc3ccc(-c4ccc(OC(F)F)cc4)cn23)cc1` [Example C4, 6-[4-(difluoromethoxy)phenyl]-3-[4-(propan-2-yloxy)phenyl]imidazo[1,2-a]pyridine] belongs > 90%; to `CC(C)Oc1ccc(-c2cnc3ccc(-c4cnn(C5CC5)c4)cn23)cc1` [Example C17, 1-cyclopropyl-4-{3-[4-(propan-2-yloxy)phenyl]imidazo[1,2-a]pyridin-6-yl}-1H-pyrazole], < 50%.
Turning to `FC(F)(F)Oc1ccc(-c2cnc3ccc(C(F)(F)F)cn23)cc1` [Example C60, 3-(4-(trifluoromethoxy)phenyl)-6-(trifluoromethyl)imidazo[1,2-a]pyridine], the inhibition at 5 µM on human Nav1.6 (setting [4]), at human Nav1.6 (setting [5]), on human Nav1.8 (setting [8]) and at human Nav1.8 (setting [9]) was < 50% each time.
On to `CC(C)Oc1ccc(-c2cnc3ccc(-c4ccc(C5(N)CC5)cc4)cn23)cc1` [Example C15, 1-(4-{3-[4-(propan-2-yloxy)phenyl]imidazo[1,2-a]pyridin-6-yl}phenyl)cyclopropan-1-amine], for which the inhibition at 5 min, 5 uM in data set [3] was < 50%.
Consider `COc1cc(OC)cc(-c2ccc3ncc(-c4ccc(OC(F)(F)F)cc4)n3c2)c1` [Example C58, 6-(3,5-dimethoxyphenyl)-3-(4-(trifluoromethoxy)phenyl)imidazo[1,2-a]pyridine], for which the inhibition at 2.5 µM at human Nav1.6 (pulse 1 (tonic), read-out: percent inhibition hNav1.6, Pulse 1 (2.5 uM)) was < 50%; at human Nav1.6 (pulse 2 (state-dependent), read-out: percent inhibition hNav1.6, Pulse 2 (2.5 uM)) it was > 90%. Also, the inhibition at 5 µM on human Nav1.8 (setting [8]) and at human Nav1.8 (setting [9]) was 50 to 90% each time.
As for `CC(C)Oc1ccc(-c2cnc3ccc(-c4ccc(C(N)=O)cc4)cn23)cc1` [Example C16, 4-{3-[4-(propan-2-yloxy)phenyl]imidazo[1,2-a]pyridin-6-yl}benzamide], in data set [3], the inhibition at 5 min, 5 uM is < 50%.
With `CC(C)Oc1ccc(-c2ccc3ncc(-c4ccc(OC(C)(C)C)nc4)n3c2)cc1` [Example C90, 3-(6-(tert-butoxy)pyridin-3-yl)-6-(4-isopropoxyphenyl)imidazo[1,2-a]pyridine], the values for the inhibition at 5 min, 5 µM in data set [1] and in data set [2] were < 50% and > 90%, respectively. Moreover, the inhibition at 5 µM on human Nav1.6 (setting [4]) is < 50%; at human Nav1.6 (setting [5]) it was > 90%; at human Nav1.7 (setting [6]), < 50%; on human Nav1.7 (setting [7]) it was > 90%.
As to `CC(C)Oc1ccc(-c2ccc3ncc(-c4ccc(OC(F)F)cc4)n3c2)cc1` [Example C40, 3-[4-(difluoromethoxy)phenyl]-6-[4-(propan-2-yloxy)phenyl]imidazo[1,2a]pyridine], the inhibition at 5 min, 5 uM in data set [3] was < 50%.
Consider `COc1cc(OC)cc(-c2cnc3ccc(-c4ccc(OC(F)(F)F)cc4)cn23)c1` [Example C59, 3-(3,5-dimethoxyphenyl)-6-(4-(trifluoromethoxy)phenyl)imidazo[1,2-a]pyridine], for which the inhibition at 5 µM at human Nav1.8 (setting [8]) and at human Nav1.8 (setting [9]) was < 50% each time.
